Structures are written as SMILES.

A word on the DC50: it is the concentration at which degradation of the target reaches its halfway point.

One assay addresses T1, PIP4K2C (Homo sapiens, UniProt Q8TBX8).
T1 sequence (Q8TBX8 1-421): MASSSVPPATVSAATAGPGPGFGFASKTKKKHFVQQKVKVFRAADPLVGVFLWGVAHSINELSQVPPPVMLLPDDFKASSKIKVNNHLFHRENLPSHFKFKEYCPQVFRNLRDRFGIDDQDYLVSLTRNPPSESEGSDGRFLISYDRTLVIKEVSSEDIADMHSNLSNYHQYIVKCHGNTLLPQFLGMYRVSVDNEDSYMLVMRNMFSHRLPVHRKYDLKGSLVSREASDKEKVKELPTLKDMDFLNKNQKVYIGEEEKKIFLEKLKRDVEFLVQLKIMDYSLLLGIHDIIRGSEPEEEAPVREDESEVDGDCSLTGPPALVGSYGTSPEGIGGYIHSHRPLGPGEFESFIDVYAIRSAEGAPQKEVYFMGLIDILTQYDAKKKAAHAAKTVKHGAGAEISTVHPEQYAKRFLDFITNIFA
Put plainly: HiBiT PIP4K2C degradation assay in MOLT-4 cells (endogenous PIP4K2C C-terminally tagged with HiBiT). It counts as cell-based. Further details: untagged in primary human PBMCs and monocyte-derived dendritic cells. To be noted: 24 hours incubation, MOLT-4, top concentration 10 micromolar; read-out: HiBIT-degradation MOLT4 PIP4k2C 24 hours DC50. A digest of the protocol:
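MOLT-4 knock-in line, HiBiT on PIP4K2C C-terminus; 22,500 cells/well; 10-pt 3-fold titration from 10 micromolar, n=2; 24 h or 6 h, 37 C, 5% CO2; Nano-Glo HiBiT lytic luminescence; DC50 via Hill equation.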
In general terms: With HiBiT, luminescence reflects the tagged protein that the partner subunit can reach.
Turning to `Cn1nc(C2CCC(=O)NC2=O)c2ccc(C3CCN(CC4CCN(CC(=O)N5CCC(Nc6ncc(F)c(-c7cccc(-n8ccccc8=O)c7)n6)CC5)CC4)CC3)cc21` (centres unmarked) [Compound 315, 3-(6-(1-((1-(2-(4-((5-fluoro-4-(3-(2-oxopyridin-1(2H)-yl)phenyl)pyrimidin-2-yl)amino)piperidin-1-yl)-2-oxoethyl)piperidin-4-yl)methyl)piperidin-4-yl)-1-methyl-1H-indazol-3-yl)piperidine-2,6-dione], the DC50 was below 0.5 µM. For `O=C1CCC(Nc2ccc(N3CCC(CCN4CCC(C(=O)N[C@H]5CC[C@H](Nc6ncc(F)c(-c7cccc(-n8ccccc8=O)c7)n6)CC5)CC4)CC3)c(F)c2)C(=O)N1` (stereo partly drawn) [Compound 316, trans-1-[2-[1-[4-[(2,6-dioxo-3-piperidyl)amino]-2-fluoro-phenyl]-4-piperidyl]ethyl]-N-[4-[[5-fluoro-4-[3-(2-oxo-1-pyridyl)phenyl]pyrimidin-2-yl]amino]cyclohexyl]piperidine-4-carboxamide], the DC50 is below 0.5 µM. As for `O=C1CCC(n2c(=O)oc3cc(N4CCC(N5CCC(C(=O)N[C@H]6CC[C@H](Nc7ncc(F)c(-c8cccc(-n9ccccc9=O)c8)n7)CC6)CC5)CC4)ccc32)C(=O)N1` (stereo partly drawn) [Compound 317, trans-1′-(3-(2,6-dioxopiperidin-3-yl)-2-oxo-2,3-dihydrobenzo[d]oxazol-6-yl)-N-(4-((5-fluoro-4-(3-(2-oxopyridin-1(2H)-yl)phenyl)pyrimidin-2-yl)amino)cyclohexyl)-[1,4′-bipiperidine]-4-carboxamide], the DC50 is below 0.5 µM.

For the compound `O=C1CCC(Nc2ccc(C3CCN(CC4CCN(C(=O)[C@H]5CC[C@H](Nc6ncc(F)c(-c7cccc(-n8ccccc8=O)c7)n6)CC5)CC4)CC3)c(F)c2)C(=O)N1` (stereo partly drawn) [Compound 318, trans-3-((3-fluoro-4-(1-((1-(4-((5-fluoro-4-(3-(2-oxopyridin-1(2H)-yl)phenyl)pyrimidin-2-yl)amino)cyclohexane-1-carbonyl)piperidin-4-yl)methyl)piperidin-4-yl)phenyl)amino)piperidine-2,6-dione], the DC50 is below 0.5 µM.

`O=C1CCC(Nc2ccc(N3CCN([C@H]4CC[C@H](C(=O)N[C@H]5CC[C@H](Nc6ncc(F)c(-c7cccc(-n8ccccc8=O)c7)n6)CC5)CC4)CC3)c(F)c2)C(=O)N1` (stereo partly drawn) [Compound 319, trans-trans-4-(4-(4-((2,6-dioxopiperidin-3-yl)amino)-2-fluorophenyl)piperazin-1-yl)-N-(4-((5-fluoro-4-(3-(2-oxopyridin-1(2H)-yl)phenyl)pyrimidin-2-yl)amino)cyclohexyl)cyclohexane-1-carboxamide]: the DC50 was below 0.5 µM. The same measure, in the same setting: to `O=C1CCC(n2c(=O)oc3cc(C4CCN(CCC5CCN(C(=O)[C@H]6CC[C@H](Nc7ncc(F)c(-c8cccc(-n9ccccc9=O)c8)n7)CC6)CC5)CC4)ccc32)C(=O)N1` (stereo partly drawn) [Compound 321, trans-3-(6-(1-(2-(1-(4-((5-fluoro-4-(3-(2-oxopyridin-1(2H)-yl)phenyl)pyrimidin-2-yl)amino)cyclohexane-1-carbonyl)piperidin-4-yl)ethyl)piperidin-4-yl)-2-oxobenzo[d]oxazol-3 (2H)-yl)piperidine-2,6-dione] belongs below 0.5 µM; to `O=C1CCC(Nc2ccc(C3CCN(CCC4CCN(C(=O)[C@H]5CC[C@H](Nc6ncc(F)c(-c7cccc(-n8ccccc8=O)c7)n6)CC5)CC4)CC3)c(F)c2)C(=O)N1` (stereo partly drawn) [Compound 322, trans-3-((3-fluoro-4-(1-(2-(1-((1r,4r)-4-((5-fluoro-4-(3-(2-oxopyridin-1(2H)-yl)phenyl)pyrimidin-2-yl)amino)cyclohexane-1-carbonyl)piperidin-4-yl)ethyl)piperidin-4-yl)phenyl)amino)piperidine-2,6-dione], below 0.5 µM.

With `O=C1CCC(n2c(=O)oc3cc(C4CCN(CC5CCN(C(=O)[C@H]6CC[C@H](Nc7ncc(F)c(-c8cccc(-n9ccccc9=O)c8)n7)CC6)CC5)CC4)ccc32)C(=O)N1` (stereo partly drawn) [Compound 323, trans-3-(6-(1-((1-(4-((5-fluoro-4-(3-(2-oxopyridin-1(2H)-yl)phenyl)pyrimidin-2-yl)amino)cyclohexane-1-carbonyl)piperidin-4-yl)methyl)piperidin-4-yl)-2-oxobenzo[d]oxazol-3 (2H)-yl)piperidine-2,6-dione], the DC50 is below 0.5 µM. Consider `O=C1CCC(n2c(=O)oc3cc(C4CCN(CCC5CCN(C(=O)[C@H]6C[C@@H](Nc7ncc(F)c(-c8cccc(-n9ccccc9=O)c8)n7)C6)CC5)CC4)ccc32)C(=O)N1` (stereo partly drawn) [Compound 325, cis-3-(6-(1-(2-(1-(3-((5-fluoro-4-(3-(2-oxopyridin-1(2H)-yl)phenyl)pyrimidin-2-yl)amino)cyclobutane-1-carbonyl)piperidin-4-yl)ethyl)piperidin-4-yl)-2-oxobenzo[d]oxazol-3 (2H)-yl)piperidine-2,6-dione], for which the DC50 is below 0.5 µM.

On to `O=C1CCC(Nc2ccc(N3CCN(CC4CCN(CC(=O)N[C@H]5CC[C@H](Nc6ncc(F)c(-c7cccc(-n8ccccc8=O)c7)n6)CC5)CC4)CC3)c(F)c2)C(=O)N1` (stereo partly drawn) [Compound 326, trans-2-(4-((4-(4-((2,6-dioxopiperidin-3-yl)amino)-2-fluorophenyl)piperazin-1-yl)methyl)piperidin-1-yl)-N-(4-((5-fluoro-4-(3-(2-oxopyridin-1(2H)-yl)phenyl)pyrimidin-2-yl)amino)cyclohexyl)acetamide], for which the DC50 was below 0.5 µM. `O=C1CCC(Nc2ccc(N3CCC(CN4CCN(CC(=O)N[C@H]5CC[C@H](Nc6ncc(F)c(-c7cccc(-n8ccccc8=O)c7)n6)CC5)CC4)CC3)c(F)c2)C(=O)N1` (stereo partly drawn) [Compound 327, trans-2-[4-[[1-[4-[(2,6-dioxo-3-piperidyl)amino]-2-fluoro-phenyl]-4-piperidyl]methyl]piperazin-1-yl]-N-[4-[[5-fluoro-4-[3-(2-oxo-1-pyridyl)phenyl]pyrimidin-2-yl]amino]cyclohexyl]acetamide]: the DC50 is below 0.5 µM. `O=C1CCC(n2c(=O)oc3cc(N4CCC(CCN5CCC(C(=O)N[C@H]6CC[C@H](Nc7ncc(F)c(-c8cccc(-n9ccccc9=O)c8)n7)CC6)CC5)CC4)ccc32)C(=O)N1` (stereo partly drawn) [Compound 329, trans-1-[2-[1-[3-(2,6-dioxo-3-piperidyl)-2-oxo-1,3-benzoxazol-6-yl]-4-piperidyl]ethyl]-N-[4-[[5-fluoro-4-[3-(2-oxo-1-pyridyl)phenyl]pyrimidin-2-yl]amino]cyclohexyl]piperidine-4-carboxamide]: the DC50 fell in the range of 1 to 5 µM.

Turning to `O=C1CCC(n2c(=O)oc3cc(N4CCC(CCN5CCC(C(=O)N6CCC(Nc7ncc(F)c(-c8cccc(-n9ccccc9=O)c8)n7)CC6)CC5)CC4)ccc32)C(=O)N1` (centres unmarked) [Compound 330, 3-[6-[4-[2-[4-[4-[[5-fluoro-4-[3-(2-oxo-1-pyridyl)phenyl]pyrimidin-2-yl]amino]piperidine-1-carbonyl]-1-piperidyl]ethyl]-1-piperidyl]-2-oxo-1,3-benzoxazol-3-yl]piperidine-2,6-dione], the DC50 was below 0.5 µM. Turning to `O=C1CCC(n2c(=O)oc3cc(C4CCN(CC(=O)N5CCC(O)(C(=O)N6CCC(Nc7ncc(F)c(-c8cccc(-n9ccccc9=O)c8)n7)CC6)CC5)CC4)ccc32)C(=O)N1` (centres unmarked) [Compound 331, 3-(6-(1-(2-(4-(4-((5-fluoro-4-(3-(2-oxopyridin-1(2H)-yl)phenyl)pyrimidin-2-yl)amino)piperidine-1-carbonyl)-4-hydroxypiperidin-1-yl)-2-oxoethyl)piperidin-4-yl)-2-oxobenzo[d]oxazol-3 (2H)-yl)piperidine-2,6-dione], the DC50 was below 0.5 µM.

Consider `Cn1c(=O)n(C2CCC(=O)NC2=O)c2ccc(C3CCN(CCC4CCN(C(=O)[C@@H]5CCC[C@H](Nc6ncc(F)c(-c7cccc(-n8ccccc8=O)c7)n6)C5)CC4)CC3)cc21` (stereo partly drawn) [Compound 335, 3-(5-(1-(2-(1-((1R,3S)-3-((5-fluoro-4-(3-(2-oxopyridin-1(2H)-yl)phenyl)pyrimidin-2-yl)amino)cyclohexane-1-carbonyl)piperidin-4-yl)ethyl)piperidin-4-yl)-3-methyl-2-oxo-2,3-dihydro-1H-benzo[d]imidazol-1-yl)piperidine-2,6-dione], for which the DC50 was below 0.5 µM. Take `O=C1CCC(n2c(=O)oc3cc(N4CCN(CC5CCN(CC(=O)N[C@H]6CC[C@H](Nc7ncc(F)c(-c8cccc(-n9ccccc9=O)c8)n7)CC6)CC5)CC4)ccc32)C(=O)N1` (stereo partly drawn) [Compound 339, trans-2-(4-((4-(3-(2,6-dioxopiperidin-3-yl)-2-oxo-2,3-dihydrobenzo[d]oxazol-6-yl)piperazin-1-yl)methyl)piperidin-1-yl)-N-(4-((5-fluoro-4-(3-(2-oxopyridin-1(2H)-yl)phenyl)pyrimidin-2-yl)amino)cyclohexyl)acetamide]: the DC50 is below 0.5 µM.

Still in this assay, the particulars now being: read-out: HiBIT-degradation MOLT4 PIP4k2C 24 hours DC50; 24 hours incubation, MOLT-4, top concentration 10 micromolar.
For `O=C1CCC(Nc2ccc(C3CCN(C4CCN(CCC(=O)N[C@H]5CC[C@H](Nc6ncc(F)c(-c7cccc(-n8ccccc8=O)c7)n6)CC5)CC4)CC3)c(F)c2)C(=O)N1` (stereo partly drawn) [Compound 328, trans-3-(4-(4-((2,6-dioxopiperidin-3-yl)amino)-2-fluorophenyl)-[1,4′-bipiperidin]-1′-yl)-N-(4-((5-fluoro-4-(3-(2-oxopyridin-1(2H)-yl)phenyl)pyrimidin-2-yl)amino)cyclohexyl)propanamide], the 50% degradation concentration (DC50) is below 0.5 µM.

The record behind these values is patent publication US20260355196A1, “INHIBITORS AND DEGRADERS OF PIP4K PROTEIN” (Larkspur Biosciences, Inc., priority 2023, published 2026).
